ChEMBL document CHEMBL1201862, “PubChem BioAssay data set” (2004)
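Briefly, cells in 96-well plates were exposed to five compound concentrations for 48 h, and endpoints were estimated by linear interpolation. Here, GI50 denotes the concentration required for 50% inhibition of growth.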 Calls of active or inactive are those of the source. No stated cut-off is given here; in the data, active = GI50 up to about 1.1 µM and inactive = higher.

How the values were obtained:
Assay in all cases: DTP human tumour cell line panel, 48 h
[1] = system: A498
[2] = system: NCI/ADR-RES
[3] = system: SNB-75
[4] = system: CCRF-CEM
[5] = system: LOX IMVI
[6] = system: OVCAR-4
[7] = system: K562
[8] = system: SF-539
[9] = system: 786-0
[10] = system: SK-MEL-5
[11] = system: SW-620
[12] = system: KM12
[13] = system: COLO 205
[14] = system: RPMI-8226
[15] = system: BT-549
[16] = system: OVCAR-8
[17] = system: EKVX
[18] = system: OVCAR-3
[19] = system: A549

SMILES	GI50 [1]	GI50 [2]	GI50 [3]	GI50 [4]	GI50 [5]	GI50 [6]	GI50 [7]	GI50 [8]	GI50 [9]	GI50 [10]	GI50 [11]	GI50 [12]	GI50 [13]	GI50 [14]	GI50 [15]	GI50 [16]	GI50 [17]	GI50 [18]	GI50 [19]
O=[N+]([O-])c1ccc2c(c1)/C(=N/N=C1c3ccccc3Cc3ccccc31)c1cc([N+](=O)[O-])cc([N+](=O)[O-])c1-2	5.75 µM (inactive)	2.19 µM (inactive)	2.81 µM (inactive)	1.75 µM (inactive)	2.24 µM (inactive)	1.73 µM (inactive)	3.7 µM (inactive)	2.99 µM (inactive)	1.72 µM (inactive)	4.42 µM (inactive)	3.28 µM (inactive)	2.47 µM (inactive)	3.21 µM (inactive)	4.39 µM (inactive)	1.52 µM (inactive)	1.67 µM (inactive)	5.12 µM (inactive)	1.69 µM (inactive)	9.4 µM (inactive)
C/C(=N\Nc1ccc2ccccc2n1)c1ccccc1O	> 100 µM (inactive)	> 37.5 µM (inactive)	< 0.01 µM (active)	3.33 µM (inactive)	> 100 µM (inactive)	> 100 µM (inactive)	7.38 µM (inactive)	> 68.9 µM (inactive)	> 37.3 µM (inactive)	> 100 µM (inactive)	> 27.6 µM (inactive)	> 100 µM (inactive)	> 100 µM (inactive)	7.23 µM (inactive)	> 100 µM (inactive)	56.1 µM (inactive)	19.6 µM (inactive)	2.13 µM (inactive)	> 100 µM (inactive)
CC1=NN(C(=O)CC(=O)Nc2ccc(Cl)cc2)C(=O)C1/N=N\c1ccc(S(=O)(=O)c2ccc(/N=N/C3C(=O)N(C(=O)CC(=O)Nc4ccc(Cl)cc4)N=C3C)cc2)cc1 (configuration not stated)	> 100 µM (inactive)	> 100 µM (inactive)	39.5 µM (inactive)	> 100 µM (inactive)	> 100 µM (inactive)	> 100 µM (inactive)	77.1 µM (inactive)	> 100 µM (inactive)	> 100 µM (inactive)	95.7 µM (inactive)	> 100 µM (inactive)	> 100 µM (inactive)	> 100 µM (inactive)	> 100 µM (inactive)	> 100 µM (inactive)	> 100 µM (inactive)	> 100 µM (inactive)	> 100 µM (inactive)	> 100 µM (inactive)
CCN(C)c1nc(N(C)CC)c2nc(N(C)CC)nc(N(C)CC)c2n1	> 100 µM (inactive)	> 100 µM (inactive)	> 100 µM (inactive)	> 100 µM (inactive)	> 100 µM (inactive)	> 100 µM (inactive)	> 100 µM (inactive)	> 100 µM (inactive)	> 100 µM (inactive)	> 100 µM (inactive)	> 100 µM (inactive)	> 100 µM (inactive)	> 100 µM (inactive)	> 100 µM (inactive)	> 100 µM (inactive)	> 100 µM (inactive)	> 100 µM (inactive)	> 100 µM (inactive)	> 100 µM (inactive)
c1ccc(-c2c(-c3cccs3)[nH]c(-c3cccs3)c2-c2ccccn2)nc1	27.5 µM (inactive)	17.2 µM (inactive)	17.6 µM (inactive)	8.24 µM (inactive)	12.4 µM (inactive)	–	11.7 µM (inactive)	20.4 µM (inactive)	22.6 µM (inactive)	13.7 µM (inactive)	13 µM (inactive)	23.1 µM (inactive)	15 µM (inactive)	20 µM (inactive)	22.2 µM (inactive)	26.4 µM (inactive)	22.9 µM (inactive)	24 µM (inactive)	18.1 µM (inactive)
COc1ccc(OC)c2sc(N3C(=O)/C(=C/Cc4ccco4)N=C3c3ccccc3)nc12	66.2 µM (inactive)	63.1 µM (inactive)	24.7 µM (inactive)	11.7 µM (inactive)	25.1 µM (inactive)	32 µM (inactive)	29.9 µM (inactive)	53.5 µM (inactive)	35.5 µM (inactive)	21.2 µM (inactive)	32.5 µM (inactive)	38.8 µM (inactive)	50.5 µM (inactive)	15.5 µM (inactive)	50.2 µM (inactive)	33.5 µM (inactive)	66.8 µM (inactive)	31.4 µM (inactive)	34.7 µM (inactive)
O=C(O)CSCc1cccc2ccccc12	> 100 µM (inactive)	> 100 µM (inactive)	> 100 µM (inactive)	> 100 µM (inactive)	> 100 µM (inactive)	> 100 µM (inactive)	> 100 µM (inactive)	> 100 µM (inactive)	> 100 µM (inactive)	> 100 µM (inactive)	> 100 µM (inactive)	> 100 µM (inactive)	> 100 µM (inactive)	> 100 µM (inactive)	> 100 µM (inactive)	> 100 µM (inactive)	19.4 µM (inactive)	> 100 µM (inactive)	> 100 µM (inactive)
Cc1csc2nc(-c3cccc([N+](=O)[O-])c3)c(/C=N/N=C(N)N)n12	0.933 µM (active)	6.27 µM (inactive)	1.75 µM (inactive)	1.92 µM (inactive)	1.81 µM (inactive)	1.78 µM (inactive)	1.98 µM (inactive)	2.29 µM (inactive)	1.57 µM (inactive)	1.55 µM (inactive)	1.71 µM (inactive)	1.68 µM (inactive)	1.78 µM (inactive)	1.86 µM (inactive)	1.1 µM (active)	1.74 µM (inactive)	1.55 µM (inactive)	1.62 µM (inactive)	1.72 µM (inactive)
O=C1CC(c2ccccc2Cl)C2(C(=O)NC(=S)NC2=O)C(c2ccccc2Cl)C1 (configuration not stated)	21.4 µM (inactive)	68.5 µM (inactive)	69.8 µM (inactive)	35.6 µM (inactive)	16.9 µM (inactive)	52 µM (inactive)	37.2 µM (inactive)	58.7 µM (inactive)	21.5 µM (inactive)	23.9 µM (inactive)	35.7 µM (inactive)	12.9 µM (inactive)	31.3 µM (inactive)	34.1 µM (inactive)	30.3 µM (inactive)	23 µM (inactive)	37.6 µM (inactive)	26.5 µM (inactive)	20.8 µM (inactive)
C=C(C)C(=O)O[C@H]1C/C(CO)=C/CCC(=C)C(OC(C)=O)[C@H]2OC(=O)C(=C)[C@H]12 (some centres not stated)	18.7 µM (inactive)	4.7 µM (inactive)	2.35 µM (inactive)	1.6 µM (inactive)	4.12 µM (inactive)	–	2.44 µM (inactive)	13.6 µM (inactive)	3.79 µM (inactive)	14.7 µM (inactive)	3.87 µM (inactive)	14.7 µM (inactive)	4.5 µM (inactive)	1.82 µM (inactive)	4.41 µM (inactive)	16.2 µM (inactive)	> 10 µM (inactive)	6.44 µM (inactive)	19.1 µM (inactive)
CC1CCC2c3c([nH]c4ccccc34)C3C(=O)N(C4CCCCC4)C(=O)C3C2C1 (configuration not stated)	22 µM (inactive)	36.5 µM (inactive)	2.78 µM (inactive)	57.7 µM (inactive)	52.5 µM (inactive)	–	19 µM (inactive)	21.9 µM (inactive)	6.85 µM (inactive)	17.9 µM (inactive)	67.3 µM (inactive)	–	> 100 µM (inactive)	38.2 µM (inactive)	14.1 µM (inactive)	15.4 µM (inactive)	14.8 µM (inactive)	19.9 µM (inactive)	19.1 µM (inactive)
c1ccc(-c2cc(-c3cc(-c4ccccn4)[nH]n3)n[nH]2)nc1	> 100 µM (inactive)	44.5 µM (inactive)	69.8 µM (inactive)	–	94.4 µM (inactive)	> 100 µM (inactive)	8.45 µM (inactive)	> 100 µM (inactive)	41.9 µM (inactive)	> 100 µM (inactive)	> 100 µM (inactive)	> 100 µM (inactive)	> 100 µM (inactive)	70.6 µM (inactive)	> 100 µM (inactive)	> 100 µM (inactive)	25.4 µM (inactive)	74.1 µM (inactive)	75.2 µM (inactive)
CCOc1cc2c(c(OCC)c1O)CC[C@@H]1[C@@H]2CC[C@]2(C)[C@@H](O)CC[C@@H]12	5.21 µM (inactive)	3.23 µM (inactive)	0.587 µM (active)	1.7 µM (inactive)	2.23 µM (inactive)	51.8 µM (inactive)	0.329 µM (active)	1.48 µM (inactive)	2.45 µM (inactive)	1.21 µM (inactive)	1.22 µM (inactive)	6.03 µM (inactive)	20.5 µM (inactive)	2.74 µM (inactive)	0.418 µM (active)	7.59 µM (inactive)	6.1 µM (inactive)	–	7.11 µM (inactive)
CC1(C)CN=C(c2ccc3ccccc3c2O)N1	> 100 µM (inactive)	> 100 µM (inactive)	> 100 µM (inactive)	> 100 µM (inactive)	> 100 µM (inactive)	> 100 µM (inactive)	> 100 µM (inactive)	> 100 µM (inactive)	> 100 µM (inactive)	> 100 µM (inactive)	> 100 µM (inactive)	> 100 µM (inactive)	> 100 µM (inactive)	> 100 µM (inactive)	> 100 µM (inactive)	–	> 100 µM (inactive)	22.2 µM (inactive)	23.6 µM (inactive)
Oc1ccc(Cl)cc1-c1nc(S)nc(-c2ccccc2)c1Cl	51.9 µM (inactive)	> 100 µM (inactive)	18.9 µM (inactive)	> 100 µM (inactive)	> 56.9 µM (inactive)	> 100 µM (inactive)	> 100 µM (inactive)	> 10 µM (inactive)	34.7 µM (inactive)	> 61.7 µM (inactive)	> 100 µM (inactive)	> 100 µM (inactive)	> 100 µM (inactive)	> 100 µM (inactive)	44.7 µM (inactive)	> 100 µM (inactive)	–	> 100 µM (inactive)	> 100 µM (inactive)
